The target of this assay is T1, hCRTH2 (Homo sapiens, UniProt Q9Y5Y4).
T1 construct: expressed in transfected cells; host or cells: HEK cell line expressing hCRTH2 (HEK-hCRTH2); membranes
T1 sequence (Q9Y5Y4 1-395): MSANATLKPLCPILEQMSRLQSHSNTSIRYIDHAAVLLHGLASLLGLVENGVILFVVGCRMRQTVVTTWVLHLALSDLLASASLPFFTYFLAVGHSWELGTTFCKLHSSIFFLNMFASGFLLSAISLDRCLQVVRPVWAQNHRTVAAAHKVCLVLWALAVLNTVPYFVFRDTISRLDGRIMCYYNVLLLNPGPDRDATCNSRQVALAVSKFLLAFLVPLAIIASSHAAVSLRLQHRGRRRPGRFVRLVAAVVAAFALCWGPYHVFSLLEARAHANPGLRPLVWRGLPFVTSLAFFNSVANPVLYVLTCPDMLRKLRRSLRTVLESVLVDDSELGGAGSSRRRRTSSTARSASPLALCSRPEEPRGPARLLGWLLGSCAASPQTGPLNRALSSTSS
Kind of assay: Radioligand binding assay ([3H]PGD2 competition, membranes from HEK-hCRTH2 cell line). The note with it: 0.7 nM [3H]PGD2, membrane protein from HEK-hCRTH2 cell line, 60 min at room temperature; values given as ranges. The protocol: Radioligand Binding Assay.
Radioligand binding assays were performed at room temperature in 10 mM HEPES/KOH pH 7.4, 1 mM EDTA containing 10 mM MnCl2 and 0.7 nM [^3H]PGD2 (NEN, 171 Ci mmol^−1), in a final volume of 0.2 ml. Competing ligands were diluted in dimethylsulfoxide (Me2SO) that was kept constant at 1% (v/v) of the final incubation volume. The reaction was initiated by the addition of 8-20 μg of membrane protein prepared from a HEK-hCRTH2 cell line. Total and non-specific binding were determined in the absence and the presence of 10 μM PGD2, respectively. Under these conditions, specific binding (total minus non-specific) of the radioligand to the receptor reached equilibrium within 50 min and was stable up to 180 min. The reaction was routinely conducted for 60 min at room temperature and terminated by rapid filtration through prewetted Unifilters GF/C (Packard), using a Tomtec MachIII semi-automated harvester (for HEK-hCRTH2). The filters were then washed with 4 ml of the same buffer and residual radioligand bound to the filter was determined by liquid scintillation counting following equilibration in 25 μl Ultima Gold F™ (Unifilter) (Packard). The Ki (in nM) values for representative compounds of the present invention are as follows: ≦5: Examples 3.1, 5.1, 6.1, 7.1, 8.1/8A, 9.1, 26, 27.1, 28.1, 29.1, 30, 31.1, 31.3, 32.1, 32.4, 33.1, 34.1, 36.1, 38.1, 39, 40, 41; >5 and ≦10: Examples, 4, 5.3, 29.2; >10 and ≦50: Examples 1, 10, 14, 21, 22, 25, 31.4, 32.3, 35, 36.2, 37; >50 and ≦100: Examples 2, 5.4, 6.2, 27.2, 28.2; >100: Examples 3.2, 5.2, 7.2, 8.2, 9.2, 11, 12, 13, 15, 16, 17, 18, 19, 20, 23, 24, 31.2, 32.2, 33.2, 34.2, 38.2.
`CC(c1ccccc1)c1cnnn1C1CCc2c(CC(=O)O)c3cccc(F)c3n2C1` (single isomer, unassigned) [Example 32.2, {4-Fluoro-7-[5-(1-phenyl-ethyl)-[1,2,3]triazol-1-yl]-6,7,8,9-tetrahydropyrido[1,2-α]indol-10-yl}-acetic acid] showed a Ki above 100 nM.

Regarding `O=C(O)Cn1c2c(c3ccccc31)CC(n1nncc1Cc1ccccc1)CC2` (single isomer, unassigned) [Example 9.1, [3-(5-Benzyl-[1,2,3]triazol-1-yl)-1,2,3,4-tetrahydro-carbazol-9-yl]-acetic acid], the inhibitory constant (Ki) was at most 5 nM.

The molecule `O=C(O)Cc1c2n(c3ccccc13)CC(n1nncc1COc1ccccc1)CC2` (stereo not drawn) [Example 21, [7-(5-Phenoxymethyl-[1,2,3]triazol-1-yl)-6,7,8,9-tetrahydropyrido[1,2-α]indol-10-yl]-acetic acid] returned a Ki of 10 to 50 nM.

In the case of `O=C(O)Cc1c2n(c3ccccc13)CC(n1nncc1COc1c(Cl)cccc1Cl)CC2` (stereo not drawn) [Example 4, (7-{5-[(2,6-dichlorophenoxy)methyl]-1H-1,2,3-triazol-1-yl}-6,7,8,9-tetrahydropyrido[1,2-α]indol-10-yl)acetic acid], the Ki was 5 to 10 nM.

Molecule `O=C(O)Cc1c2n(c3c(F)cccc13)CC(n1nncc1Cc1ccccc1)CC2` (single isomer, unassigned) [Example 7.1, [7-(5-Benzyl-[1,2,3]triazol-1-yl)-4-fluoro-6,7,8,9-tetrahydropyrido[1,2-α]indol-10-yl]-acetic acid] yielded a Ki of at most 5 nM.

The molecule `CC(c1ccccc1)c1cnnn1C1CCc2c(CC(=O)O)c3cccc(F)c3n2C1` (single isomer, unassigned) [Example 32.3, {4-Fluoro-7-[5-(1-phenyl-ethyl)-[1,2,3]triazol-1-yl]-6,7,8,9-tetrahydropyrido[1,2-α]indol-10-yl}-acetic acid] gave a Ki of 10 to 50 nM.

On to `CC1C(n2nncc2Cc2ccc(F)cc2)CCc2c(CC(=O)O)c3cccc(F)c3n21` (single isomer, unassigned) [Example 38.1, {4-Fluoro-7-[5-(4-fluorobenzyl)-1H-1,2,3-triazol-1-yl]-6-methyl-6,7,8,9-tetrahydropyrido[1,2-α]indol-10-yl}acetic acid], for which the Ki was at most 5 nM.

In turn, `Cc1nnn(C2CCc3c(CC(=O)O)c4cccc(F)c4n3C2)c1Cc1ccc(F)cc1` (single isomer, unassigned) [Example 36.1, {4-Fluoro-7-[5-(4-fluorobenzyl)-4-methyl-1H-1,2,3-triazol-1-yl]-6,7,8,9-tetrahydropyrido[1,2-a]indol-10-yl}acetic acid] returned an inhibition constant Ki of at most 5 nM.

For the molecule `O=C(O)Cc1c2n(c3ccccc13)CC(n1nncc1C1(O)c3ccccc3-c3ccccc31)CC2` (stereo not drawn) [Example 25, {7-[5-(9-Hydroxy-9H-fluoren-9-yl)-[1,2,3]triazol-1-yl]-6,7,8,9-tetrahydropyrido[1,2-α]indol-10-yl}-acetic acid], the inhibition constant (Ki) was in the range of 10 to 50 nM.

(Values after patent US9023864B2, “Indole derivatives as CRTH2 receptor antagonists” (Merck Sharp & Dohme Corp., priority 2009, dated 2015).)
